According to US10487117B2, “Antimicrobial peptide for nosocomial infections” (priority 2015, dated 2019):
Values joined by “and” are separate entries in the source; they are usually repeats but may differ in a detail not shown here. Identical values can stand only once. Residues, ends and D or L forms follow the SMILES beside them.

B1: RNase 3: Recombinant human RNase 3, also known as eosinophil cationic protein (ECP), parental protein of the peptide (protein, UniProt P12724 28-160, looked up)
Eosinophil cationic protein: RPPQFTRAQWFAIQHISLNPPRCTIAMRAINNYRWRCKNQNTFLRTTFANVVNVCGNQSIRCPHNRTLNNCHRSRFRVPLLHCDLINPGAQNISNCTYADRPGRRFYVVACDNRDPRDSPRYPVVPVHLDTTI

How the values were obtained:
planktonic P. aeruginosa [1] = test: DiSC3(5) cytoplasmic membrane depolarization assay, planktonic; type: cell-based, Pseudomonas aeruginosa; conditions: 10% Triton X-100 as maximum reference
Protocol: To further investigate the antimicrobial mechanism of action of the peptide, its ability to depolarize P. aeruginosa membranes was evaluated. Depolarization activity was analyzed by the DiSC3(5) assay (Table 5). DiSC3(5) is a fluorescent probe, which is sensitive to membrane potential. The DiSC3(5) fluorescence is quenched upon interaction with intact cell membranes. When the membrane potential is lost, the probe is released to the medium, resulting in an increase of fluorescence that can be recorded as a function of peptide concentration. Thus, the half depolarization action (ED50) was evaluated, defined as the peptide concentration needed to achieve a half-depolarization effect, and the total depolarization activity at final incubation time (Table 3).
(§1) Membrane depolarization was followed using the method described earlier (Torrent M. et al. 2008). Briefly, bacterial cells were grown at 37° C. to an OD600=0.2, centrifuged at 5000×g for 7 min, washed with 5 mM Hepes at pH 7.2 containing 20 mM glucose, and resuspended in 5 mM Hepes-KOH, 20 mM glucose, and 100 mM KCl at pH 7.2 to an OD600=0.05 and 200 μl were transferred to a microtiter plate for planktonic assays. For biofilm assay, 24 h formed P. aeruginosa biofilm in a 96-well microtiter plate were washed three times with sterile PBS. Afterwards P. aeruginosa biofilms were washed with 5 mM Hepes at pH 7.2 containing 20 mM glucose, and rinsed in 5 mM Hepes-KOH, 20 mM glucose, and 100 mM KCl at pH 7.2. In both cases, DiSC3(5) was added to a final concentration of 0.4 μM and changes in the fluorescence were continuously recorded after addition of peptides at 10 μM in a Victor3 plate reader. A maximum reference value for total depolarization is calculated for Triton X-100 at 10%. Alternatively, changes in the fluorescence were continuously recorded after addition of a serially diluted protein/peptides from 50 to 0.1 μM. The peptide concentration required to achieve half of total and total membrane depolarization after 40 min incubation time was estimated from nonlinear regression analysis as previously described (Torrent M. et al. 2010)

planktonic P. aeruginosa [2] = test: SYTOX Green membrane permeabilization assay, planktonic; type: cell-based, Pseudomonas aeruginosa; conditions: 10% Triton X-100 as maximum reference
Protocol: Further insight into the membrane-permeabilizing effect of the selected AMPs against P. aeruginosa was evaluated by the Sytox Green assay. Local membrane disturbances allow the cell uptake of the fluorescent Sytox Green dye that subsequently stains the cell nucleic acids; the fluorescence increase is registered to monitor the cell membrane permeabilization. Therefore, the half permeabilization action (ED50) was measured, and the total permeabilization activity expressed as a percentage (Table 5). […] On the other hand, WY-12 and CA-M required a 6- to 7-fold greater concentration than RNase 3 to produce half of their permeabilizing effect.
(§2) Membrane permeabilization was followed using the method SYTOX Green Fluorescence membrane permeabilization assay. In the planktonic assay, bacterial cells were grown at 37° C. to an OD600=0.2, centrifuged at 5000×g for 5 min, and resuspended in 1×PBS to an OD600=0.2. An aliquot of 200 μl was then transferred to a microtiter plate. For biofilm assay, 24 h formed P. aeruginosa biofilm in a 96-well microtiter plate were washed three times with sterile PBS. SYTOX Green was added to a final concentration of 1 μM and incubated 15 min in darkness. Changes in the fluorescence were continuously recorded after addition of a serially diluted protein/peptides from 50 to 0.1 μM in a Victor3 plate reader. The peptide concentration required to achieve half of total and total membrane permeabilization achieved after 40 min was estimated from nonlinear regression analysis as previously described (Pulido D. et al. Antimicrob Agents Chemother 2013). A maximum reference value was taken for Triton X-100 at 10%.

[3] = Biofilm cell mortality, BacTiter-Glo luminescent assay; type: cell-based, Pseudomonas aeruginosa; conditions: 24 h formed biofilm; 4 h at 37° C.; 10% Triton X-100 as maximum reference; N.D. = not detected at 50 μM; read-out: Biofilm cell mortality (%max)
Protocol: (§3) Bacterial viability was assayed using the BacTiter-Glo™ microbial cell viability kit. Briefly, protein/peptides were dissolved in 10 mM sodium phosphate, 0.1M buffer, pH 7.5, serially diluted from 50 to 0.1 μM and tested in a 96-well microtiter plate containing P. aeruginosa planktonic (OD600˜0.2) or 24 h formed biofilm for 4 h at 37° C. Fifty microliters of BacTiter-Glo™ reagent was added to each well according to the manufacturer's instructions and incubated at room temperature for 15 min. Luminescence was read on a Victor3 plate reader with a 3-s integration time. Fifty percent (ED50) and total inhibitory concentrations were calculated by fitting the data to a dose-response curve.
(§4) As a first approach, the biofilm cell viability was monitored using the BacTiter-Glo™ luminescent assay. Therefore, the antimicrobial action of the studied AMPs was determined on already established P. aeruginosa biolfilms (FIG. 1 and Table 6). […] However, for all the active peptides, the concentrations needed to produce an equivalent effect in biofilms were between 2 to 10 times higher than in planktonic cultures. […] At the same time, we applied the crystal violet technique to assess the peptide ability to disperse pre-established P. aeruginosa biofilms.
(§5) Biofilm formation assay was modified from the previously described protocol (Huedo P. et al. 2014). Briefly, overnight cultures of P. aeruginosa were centrifuged at 5000×g for 5 min, washed and adjusted to an OD600=0.1 in tryptic soy medium (TSB). Two hundred microliters of the bacterial suspension were dispensed in each well of a polystyrene 96-well microtiter plate (Greiner Bio-one, France). The plate was incubated at 37° C. on an orbital shaker (30 rpm). The media was exchanged with fresh pre-warmed TSB after 4 h, in order to remove the non-attached bacteria. After 24 h incubation, the formation of biofilm was then evaluated using the crystal violet staining technique (Stepanovic S. et al. 2000). Briefly, the plates were washed three times with PBS, fixed at 60° C. for 1 h, and stained for 15 min with 200 μl of 0.1% crystal violet. After the dye was discarded, plates were rinsed in PBS and allowed to dry for 30 min at 37° C. Crystal violet was dissolved in 250 μl of 95% ethanol for 15 min, and the OD570 of the extracted dye was measured using a Victor3 plate reader (Perkin-Elmer, Waltham, Mass.).

[4] = tested on: pre-established P. aeruginosa biofilm; test: Biofilm eradication assay, crystal violet staining; type: cell-based, Pseudomonas aeruginosa; conditions: 24 h formed biofilm; 4 h at 37° C.; 10% Triton X-100 as maximum reference
Protocol: Following, the biofilm eradication activity was determined (FIG. 1 and Table 6). […] Moreover, the biofilm eradication activity of all the tested reference peptides was well above the maximum concentration tested (50 μM), except for RN3(5-17P22-36) which was able to eradicate the biofilm close to 50 μM.
as §5
Biofilms were grown as above. Twenty-four hour formed P. aeruginosa biofilm was washed three times with sterile PBS, and rinsed with 10 mM sodium phosphate buffer pH 7.5. Each well was treated with increasing protein/peptide concentrations (from 0.01 to 50 μM) and incubated at 37° C. for 4 h. The biofilm eradication was then evaluated using the crystal violet staining technique (Stepanovic S. et al. 2000). The ability of the antimicrobial peptides to disperse and reduce the biofilm mass of preformed biofilms was calculated. The peptide concentration required to achieve total preformed biofilm eradication after 4 h incubation time was estimated. A maximum reference value was taken for Triton X-100 at 10%. The minimum biofilm eradication concentration (MBEC), defined as the protein/peptide concentration where the 99.9% of the biofilm mass is eradicated was estimated.

[5] = tested on: established P. aeruginosa biofilms; test: SYTOX Green membrane permeabilization assay on biofilm; type: cell-based, Pseudomonas aeruginosa; conditions: maximum percentage at final incubation time, 10% Triton X-100 reference
Protocol: as §2
(§6) Thereupon, the antimicrobial mechanism of action of the RNase 3 derived peptide on P. aeruginosa biofilms was further characterized with the depolarization and permeabilization assays. As applied for the P. aeruginosa planktonic culture, the fluorescent DisC3(5) assay was also used here in order to monitor the depolarization activity of the studied protein and peptides against established biofilms. Therefore, we have measured the half depolarization action (ED50), and the total depolarization activity expressed as a percentage (Table 7). […] Similar results were obtained for the Sytox Green permeabilization assay, where the total permeabilization effect was hindered for all the AMPs tested, and between two to ten times higher concentrations were required to achieve half of the biofilm cell permeabilizing effect in comparison to the planktonic cells.

[6] = tested on: established P. aeruginosa biofilms; test: DiSC3(5) membrane depolarization assay on biofilm; type: cell-based, Pseudomonas aeruginosa; conditions: maximum percentage at final incubation time, 10% Triton X-100 reference
Protocol: as §1, §6

[7] = tested on: pre-established P. aeruginosa biofilm; test: Biofilm cell mortality, BacTiter-Glo luminescent assay; type: cell-based, Pseudomonas aeruginosa; conditions: 24 h formed biofilm; 4 h at 37° C.; 10% Triton X-100 as maximum reference; N.D. = not detected at 50 μM
Protocol: as §3, §4, §5

[8] = tested on: LPS (lipopolysaccharides) from P. aeruginosa; test: LPS binding assay, BODIPY TR cadaverine (BC) displacement; set-up: species or system Pseudomonas aeruginosa; conditions: 100% = total displacement of the dye; mean ± SEM
Protocol: Following, LPS binding affinity was monitored by a fluorometric assay which measures the competitive displacement of a cadaverine fluorescent probe (BC) by the protein and peptides. The half LPS binding affinity (ED50), defined as the AMP concentration needed to achieve half of BC displacement, and the total LPS binding affinity, expressed as a percentage, were determined (Table 4). Interaction with negatively charged surfaces of bacteria is the first step for cationic peptides to reach the bacterial membranes and exert their antimicrobial action.
LPS binding was assessed using the fluorescent probe BODIPY TR cadaverine (BC) as previously described (Pulido D. et al. Febs J 2013). BC binds strongly to native LPS, specifically recognizing the lipid A portion. When a protein that interacts with LPS is added, BC is displaced from the complex and its fluorescence is increased, decreasing its occupancy factor. LPS-binding assays were carried out in a 10 mM Hepes buffer at pH 7.5. The displacement assay was performed using a 96 well microtiter plate containing stirred mixture of either LPS (10 μg/mL) and BC (10 μM). Protein/peptides were serially diluted from 10 to 0.1 μM. Fluorescence measurements were performed on a Victor3 plate reader (Perkin Elmer, Waltham, Mass.). The protein/peptide concentration required to achieve half of total and total BC displacement was estimated from nonlinear regression analysis as previously described (Wood S. J. et al. 2004)

planktonic P. aeruginosa [9] = type: cell-based, Pseudomonas aeruginosa; conditions: planktonic P. aeruginosa; 4 h at 37° C.; mean ± SEM; N.D. = not detected at 50 μM; read-out: IC50 (50% bacterial viability)
Protocol: The microbial cell viability was then assayed using the BacTiter-Glo™ luminescent kit. […] No cell reduction was detected for the peptide GL-13 even for the maximum concentration assayed (50 μM).
as §3

Row | Molecule | Depolarization %max (planktonic P. aeruginosa [1]) [%] | Permeabilization %max (planktonic P. aeruginosa [2]) [%] | mortality [3] [%] | Biofilm eradication (%max) [4] [%] | Permeabilization Mean % ± SEM [5] [%] | Depolarization Mean % ± SEM [6] [%] | Biofilm cell mortality (%max) [7] | LPS binding %max (percentage of maximum displacement) [8] [%] | IC50 (planktonic P. aeruginosa [9]) [nM]
1 | CC[C@H](C)[C@H](NC(=O)[C@H](Cc1ccccc1)NC(=O)[C@@H](NC(=O)[C@H](Cc1ccccc1)NC(=O)[C@H](CCCNC(=N)N)NC(=O)[C@H](CCCCN)NC(=O)[C@H](CCCNC(=N)N)NC(=O)[C@H](CCCCN)NC(=O)[C@H](Cc1c[nH]c2ccccc12)NC(=O)[C@H](CC(C)C)NC(=O)[C@@H](NC(=O)[C@@H](N)Cc1ccc(O)cc1)C(C)C)[C@@H](C)CC)C(N)=O [WY-12, YVLWKRKRFIFI-NH2] (H-YVLWKRKRFIFI-NH2; N-terminus assumed) | 44.02 ± 4.01 | 39.43 ± 1.19 | 39.7 ± 8.93 | 38.36 ± 2.36 | 18.91 ± 2.23 | 32.58 ± 1.87 |  |  | 
2 | B1 |  | 45.67 ± 2.29 |  |  | 39.4 ± 2.88 | 46.11 ± 3.21 | ~50% and 67.31 ± 0.79% | 99.85 ± 9.51 | 840 ± 30
